Test system: Acinetobacter baumannii isolates
Experiment: Antimicrobial susceptibility test, disc diffusion method (CLSI M100-S24)
Format: cell-based
Parameters: key to Inhibition zone: “NZ” indicated that no zone of inhibition was observed
Settings: for Inhibition zone: disc diffusion
Protocol: A total of 33 non-duplicate, non-consecutive clinical isolates of Multi-Drug Resistant (MDR) Acinetobacter baumannii were collected from burn wards (“AB1-AB33”). Acinetobacter baumannii ATCC BAA 747 and Pseudomonas aeruginosa ATCC 27853 were used as control strains. The isolates were stored at −80° C. in trypticase soy broth containing 20% glycerol.
Antimicrobial susceptibility tests of the collection of isolates were conducted using the disc diffusion method. The experiment was performed according to the recommendations and guidelines of Clinical Laboratory Standard Institutes (CLSI M100-S24; 2014). Clinical and Laboratory Standards Institute (CLSI), “Performance standards for antimicrobial susceptibility testing; twenty-fourth informational supplement,” Document M100-S24, Clinical and Laboratory Standards Institute (CLSI), Wayne, Pa., USA, 2014.
A panel of commercial antibiotic discs (Amoxicillin (AMX), Amoxicillin/clavulanic acid (AMX/CLA), Piperacillin (PIP), Piperacillin/Tazobactam (PIP/TAZ), Ceftazidime (CAZ), Cefotaxime (CTX), Cefepime (FEP), Cefoxitin (FOX), Aztreonam (ATM), Imipenem (IP), Gentamicin (GEN), Amikacin (AK), Neomycin (NEO), Levofloxacin (LEV), Chloramphenicol (CHL), Tetracycline (TET), sulfamethoxazole/trimethoprim (SUL/TRI) was used for susceptibility testing. All commercial antibiotic discs were purchased from BBL (Becton Dickinson, USA).
Forty grams of Mueller-Hinton Agar (MHA) were suspended in 1 Liter distilled water and then boiled to dissolve the powder completely. The medium was sterilized by autoclaving at 121° C. for 15 min. After autoclaving, the medium was cooled to 45° C. and 25 mL of molten agar media was poured into sterile Petri dishes (90 mm diameter) to give a depth of about 4 mm. The surface of the agar was dried to remove excess moisture before use. The plates were stored at 4-8° C. in sealed plastic bags if not used immediately.
The inoculum suspension was prepared by selecting three to five morphologically similar colonies from overnight growth (16-24 h of incubation) on blood agar medium. […] The suspension density was measured using a UV spectrophotometer calibrated with a 0.5 McFarland standard. The density of the suspension was adjusted to McFarland 0.5 by addition of saline or more microorganisms. The adjusted inoculum suspension was used within 60 min of preparation.
A sterile cotton swab was dipped into the bacterial suspension and the excess fluid was removed by turning the swab against the inside wall of the tube to avoid over-inoculation of plates. The inoculum was spread evenly over the entire surface of the agar plate by swabbing in three directions.
The predetermined panel of antimicrobial disks was applied firmly on the inoculated Mueller-Hinton agar surface within 15 min of inoculation of the plates by a disc dispenser device. A maximum of six disks were accommodated on a 90-mm circular plate.
Within 15 min of application of antimicrobial disks, the plates were inverted and incubated aerobically at 35-37° C. for 18-20 h.
After incubation, inhibition zones were measured at the point where no obvious growth is detected by the unaided eye when the plate is held about 30 cm from the eye. Inhibition zone diameters were measured to the nearest millimeter with a ruler. The plates were read from the back of the plate with reflected light against a dark background. Zone diameters were interpreted and categorized as susceptible “S”, intermediate “I”, or resistant “R” according to the CLSI clinical breakpoint tables (see Table 1 and Table 2).

CC1(C)S[C@@H]2[C@H](NC(=O)[C@H](N)c3ccc(O)cc3)C(=O)N2[C@H]1C(=O)O [AMX, Amoxicillin]
R (Resistant ≤13): susceptibility category (isolate AB1, AMX disc) | susceptibility category (isolate AB2, AMX disc) | susceptibility category (isolate AB3, AMX disc) | susceptibility category (isolate AB4, AMX disc) | susceptibility category (isolate AB5, AMX disc) | susceptibility category (isolate AB6, AMX disc) | susceptibility category (isolate AB7, AMX disc) | susceptibility category (isolate AB8, AMX disc) | susceptibility category (isolate AB9, AMX disc) | susceptibility category (isolate AB10, AMX disc) | susceptibility category (isolate AB11, AMX disc) | susceptibility category (isolate AB12, AMX disc) | susceptibility category (isolate AB13, AMX disc) | susceptibility category (isolate AB14, AMX disc) | susceptibility category (isolate AB15, AMX disc) | susceptibility category (isolate AB16, AMX disc) | susceptibility category (isolate AB17, AMX disc) | susceptibility category (isolate AB18, AMX disc) | susceptibility category (isolate AB19, AMX disc) | susceptibility category (isolate AB20, AMX disc) | susceptibility category (isolate AB21, AMX disc) | susceptibility category (isolate AB22, AMX disc) | susceptibility category (isolate AB23, AMX disc) | susceptibility category (isolate AB24, AMX disc) | susceptibility category (isolate AB25, AMX disc) | susceptibility category (isolate AB26, AMX disc) | susceptibility category (isolate AB27, AMX disc) | susceptibility category (isolate AB28, AMX disc) | susceptibility category (isolate AB29, AMX disc) | susceptibility category (isolate AB30, AMX disc) | susceptibility category (isolate AB31, AMX disc) | susceptibility category (isolate AB32, AMX disc) | susceptibility category (isolate AB33, AMX disc)
NZ: Inhibition zone (isolate AB1) | Inhibition zone (isolate AB2) | Inhibition zone (isolate AB3) | Inhibition zone (isolate AB4) | Inhibition zone (isolate AB5) | Inhibition zone (isolate AB6) | Inhibition zone (isolate AB7) | Inhibition zone (isolate AB8) | Inhibition zone (isolate AB9) | Inhibition zone (isolate AB10) | Inhibition zone (isolate AB11) | Inhibition zone (isolate AB12) | Inhibition zone (isolate AB13) | Inhibition zone (isolate AB14) | Inhibition zone (isolate AB15) | Inhibition zone (isolate AB16) | Inhibition zone (isolate AB17) | Inhibition zone (isolate AB18) | Inhibition zone (isolate AB19) | Inhibition zone (isolate AB20) | Inhibition zone (isolate AB21) | Inhibition zone (isolate AB22) | Inhibition zone (isolate AB23) | Inhibition zone (isolate AB24) | Inhibition zone (isolate AB25) | Inhibition zone (isolate AB26) | Inhibition zone (isolate AB27) | Inhibition zone (isolate AB29) | Inhibition zone (isolate AB30) | Inhibition zone (isolate AB33)
9 mm: Inhibition zone (isolate AB28)
8 mm: Inhibition zone (isolate AB31) | Inhibition zone (isolate AB32)

C[C@H]1[C@H](NC(=O)/C(=N\OC(C)(C)C(=O)O)c2csc(N)n2)C(=O)N1S(=O)(=O)O [ATM, Aztreonam]
8 mm: Inhibition zone (isolate AB19) | Inhibition zone (isolate AB32)
NZ: Inhibition zone (isolate AB1) | Inhibition zone (isolate AB2) | Inhibition zone (isolate AB3) | Inhibition zone (isolate AB4) | Inhibition zone (isolate AB5) | Inhibition zone (isolate AB7) | Inhibition zone (isolate AB8) | Inhibition zone (isolate AB9) | Inhibition zone (isolate AB11) | Inhibition zone (isolate AB12) | Inhibition zone (isolate AB13) | Inhibition zone (isolate AB14) | Inhibition zone (isolate AB20) | Inhibition zone (isolate AB22) | Inhibition zone (isolate AB23) | Inhibition zone (isolate AB24) | Inhibition zone (isolate AB27) | Inhibition zone (isolate AB28) | Inhibition zone (isolate AB29) | Inhibition zone (isolate AB31)
9 mm: Inhibition zone (isolate AB30) | Inhibition zone (isolate AB33)
13 mm: Inhibition zone (isolate AB10) | Inhibition zone (isolate AB25)
12 mm: Inhibition zone (isolate AB26)
10 mm: Inhibition zone (isolate AB18)
33 mm: Inhibition zone (isolate AB16)
20 mm: Inhibition zone (isolate AB6)
R (Resistant ≤15): susceptibility category (isolate AB1, ATM disc) | susceptibility category (isolate AB2, ATM disc) | susceptibility category (isolate AB3, ATM disc) | susceptibility category (isolate AB4, ATM disc) | susceptibility category (isolate AB5, ATM disc) | susceptibility category (isolate AB7, ATM disc) | susceptibility category (isolate AB8, ATM disc) | susceptibility category (isolate AB9, ATM disc) | susceptibility category (isolate AB10, ATM disc) | susceptibility category (isolate AB11, ATM disc) | susceptibility category (isolate AB12, ATM disc) | susceptibility category (isolate AB13, ATM disc) | susceptibility category (isolate AB14, ATM disc) | susceptibility category (isolate AB15, ATM disc) | susceptibility category (isolate AB17, ATM disc) | susceptibility category (isolate AB18, ATM disc) | susceptibility category (isolate AB19, ATM disc) | susceptibility category (isolate AB20, ATM disc) | susceptibility category (isolate AB21, ATM disc) | susceptibility category (isolate AB22, ATM disc) | susceptibility category (isolate AB23, ATM disc) | susceptibility category (isolate AB24, ATM disc) | susceptibility category (isolate AB25, ATM disc) | susceptibility category (isolate AB26, ATM disc) | susceptibility category (isolate AB27, ATM disc) | susceptibility category (isolate AB28, ATM disc) | susceptibility category (isolate AB29, ATM disc) | susceptibility category (isolate AB30, ATM disc) | susceptibility category (isolate AB31, ATM disc) | susceptibility category (isolate AB32, ATM disc) | susceptibility category (isolate AB33, ATM disc)
7 mm: Inhibition zone (isolate AB21)
11 mm: Inhibition zone (isolate AB15)
15 mm: Inhibition zone (isolate AB17)
S (Sensitive ≥22): susceptibility category (isolate AB6, ATM disc) | susceptibility category (isolate AB16, ATM disc)

Reference: patent US11617726B2, “Method for preventing, treating, or ameliorating a microbial infection” (priority 2018, dated 2023)
